# In ChEMBL document CHEMBL1140575, “Xanthones from Cudrania tricuspidata displaying potent alpha-glucosidase inhibition” (Bioorg Med Chem Lett, 2007):
# Test: Inhibition of bakers yeast alpha-glucosidase by spectrophotometry
# Design: species or system Saccharomyces cerevisiae
row,IC50 [µM],Structure (SMILES)
1,52.9,C=CC(C)(C)c1c(O)cc2oc3c(CC=C(C)C)c(O)c(O)cc3c(=O)c2c1O [CUDRAXANTHONE L]
2,> 100,CC(C)=CCc1c(O)c(O)cc2c(=O)c3c(O)c4c(cc3oc12)OC(C)C4(C)C (stereo not drawn) [CUDRAXANTHONE M]
3,35.8,C=CC(C)(C)c1c(O)cc2oc3cc(O)c(O)c(CC=C(C)C)c3c(=O)c2c1O
4,38.2,C=CC(C)(C)c1c(O)c(CC=C(C)C)c2oc3cc(O)c(O)cc3c(=O)c2c1O [MACLURAXANTHONE B]
5,37.7,C=CC(C)(C)c1c(O)cc(O)c2c(=O)c3c(CC=C(C)C)c(O)c(O)cc3oc12 [CUDRATRICUSXANTHONE A]
6,24.9,C=CC(C)(C)c1c(O)cc(O)c2c(=O)c3cc(O)c4c(c3oc12)C=CC(C)(C)O4
7,32,CC(C)=CCc1c2c(c(O)c3c(=O)c4cc(O)c(O)cc4oc13)C(C)(C)C(C)O2 (stereo not drawn)
8,16.2,C=CC(C)(C)c1c(OC)cc(O)c2c(=O)c3c(CC=C(C)C)c(O)c(O)cc3oc12 [CUDRAXANTHONE D]
